What was measured:
[1] = system: Glomerella lagenarium (Colletotrichum lagenarium); experiment: Glomerella lagenarium (Colletotrichum lagenarium) / liquid culture (anthracnose); type: cell-based; settings: Colletotrichum orbiculare, PDB potato dextrose broth, 24° C., 3-4 days after application, read-out: control of Glomerella lagenarium (inhibition of growth, photometric)
Method in brief: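 Fungal growth inhibition measured photometrically 3-4 days post-application at 24° C. Spores were mixed directly into potato dextrose broth and dispensed onto test compound supplied in DMSO.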

[2] = system: Blumeria graminis f. sp. tritici (Erysiphe graminis f. sp. tritici); experiment: Blumeria graminis f. sp. tritici / wheat / leaf disc preventative (powdery mildew on wheat); type: in vivo; settings: foliar, wheat leaf segments cv. Kanzler, inoculated 1 day after application, assessed 6-8 days after application, read-out: control of Blumeria graminis f. sp. tritici (percent disease control compared to untreated)
Text: Example B4: Blumeria graminis f. sp. tritici (Erysiphe graminis f. sp. tritici)/Wheat/Leaf Disc Preventative (Powdery Mildew on Wheat) Wheat leaf segments cv. Kanzler are placed on agar in a multiwell plate (24-well format) and sprayed with the formulated test compound diluted in water. The leaf disks are inoculated by shaking powdery mildew infected plants above the test plates 1 day after application. […] […]-192.

[3] = system: Fusarium culmorum; experiment: microbe, parasite or virus in culture; type: cell-based; settings: read-out: control of Fusarium culmorum (inhibition of growth, photometric)
[4] = system: Monographella nivalis (Microdochium nivale); experiment: Monographella nivalis (Microdochium nivale) / liquid culture (foot rot cereals); type: cell-based; settings: PDB potato dextrose broth, 24° C., 4-5 days after application, read-out: control of Monographella nivalis (inhibition of growth, photometric)
Method in brief: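 Growth inhibition measured by photometry 4-5 days post-application at 24° C. Compound was dispensed as DMSO solution, then PDB broth containing conidia from cryogenic storage was added.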

[5] = system: Mycosphaerella arachidis (Cercospora arachidicola); experiment: Mycosphaerella arachidis (Cercospora arachidicola) / liquid culture (early leaf spot); type: cell-based; settings: PDB potato dextrose broth, 24° C., 4-5 days after application, read-out: control of Mycosphaerella arachidis (inhibition of growth, photometric)
Method in brief: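 Conidia from cryogenic storage suspended in potato dextrose broth and added to compound in DMSO. Incubation at 24° C; growth inhibition read photometrically 4-5 days after application.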

[6] = system: Puccinia recondita f. sp. tritici; experiment: Puccinia recondita f. sp. tritici / wheat / leaf disc preventative (brown rust); type: in vivo; settings: foliar, wheat leaf segments cv. Kanzler, inoculated 1 day after application, assessed 7-9 days after application, read-out: control of Puccinia recondita f. sp. tritici, preventative (percent disease control compared to untreated)
Method in brief: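 Wheat leaf segments (cv. Kanzler) on agar were sprayed with formulated compound, then inoculated with spores 1 day later. Segments were incubated at 19 °C, 75% rh with 12 h light/dark. Percent disease control versus untreated was scored 7–9 days after application.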

[7] = system: Magnaporthe grisea (Pyricularia oryzae); experiment: whole plant or invertebrate; type: in vivo; settings: foliar, read-out: control of Magnaporthe grisea (percent disease control compared to untreated)
[8] = system: Pyrenophora teres; experiment: Pyrenophora teres / barley / leaf disc preventative (net blotch); type: in vivo; settings: foliar, barley leaf segments cv. Hasso, inoculated 2 days after application, assessed 5-7 days after application, read-out: control of Pyrenophora teres (disease control compared to untreated)
Method in brief: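 Barley cv. Hasso leaf discs on agar were sprayed with diluted formulated compound, then inoculated with spore suspension 2 days later. Incubation at 20 °C, 65% rh, 12 h light/dark; disease control versus untreated assessed 5-7 days after application.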

[9] = system: Sclerotinia sclerotiorum; experiment: Sclerotinia sclerotiorum / liquid culture (cottony rot); type: cell-based; settings: PDB potato dextrose broth, mycelia fragments, 24° C., 3-4 days after application, read-out: control of Sclerotinia sclerotiorum (inhibition of growth, photometric)
Protocol: Example B14: Sclerotinia sclerotiorum/Liquid Culture (Cottony Rot) Mycelia fragments of a newly grown liquid culture of the fungus are directly mixed into nutrient broth (PDB potato dextrose broth). After placing a (DMSO) solution of test compound into a microtiter plate (96-well format) the nutrient broth containing the fungal material is added. The test plates are incubated at 24° C. and the inhibition of growth is determined photometrically 3-4 days after application.

[10] = system: Mycosphaerella graminicola (Septoria tritici); experiment: Mycosphaerella graminicola (Septoria tritici) / liquid culture (Septoria blotch); type: cell-based; settings: Zymoseptoria tritici, PDB potato dextrose broth, 24° C., 4-5 days after application, read-out: control of Mycosphaerella graminicola (inhibition of growth, photometric)
Method in brief: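 Fungal growth inhibition was read photometrically 4-5 days after application. Compound was dosed from a DMSO solution into liquid cultures of spores in potato dextrose broth, incubated at 24° C.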

[11] = system: Alternaria solani; experiment: Alternaria solani / tomato / leaf disc (early blight); type: in vivo; settings: foliar, tomato leaf disks cv. Baby, inoculated 2 days after application, assessed 5-7 days after application, read-out: control of Alternaria solani (percent disease control compared to untreated)
Protocol: Example B1: Alternaria solani/Tomato/Leaf Disc (Early Blight) Tomato leaf disks cv. Baby are placed on agar in multiwell plates (24-well format) and sprayed with the formulated test compound diluted in water. The leaf disks are inoculated with a spore suspension of the fungus 2 days after application. The inoculated leaf disks are incubated at 23° C./21° C. […] […]-185.

[12] = system: Botryotinia fuckeliana (Botrytis cinerea); experiment: Botryotinia fuckeliana (Botrytis cinerea) / liquid culture (gray mould); type: cell-based; settings: Vogels broth, 24° C., 3-4 days after application, read-out: control of Botryotinia fuckeliana (inhibition of growth, photometric)
Method in brief: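 Botrytis cinerea conidia in Vogels broth were added to compound supplied as DMSO solution. Plates were incubated at 24 °C, and growth inhibition was read photometrically 3-4 days after application.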

[13] = system: Phaeosphaeria nodorum (Septoria nodorum); experiment: Phaeosphaeria nodorum (Septoria nodorum) / wheat / leaf disc preventative (glume blotch); type: in vivo; settings: Parastagonospora nodorum, foliar, wheat leaf segments cv. Kanzler, inoculated 2 days after application, assessed 5-7 days after application, read-out: control of Phaeosphaeria nodorum (percent disease control compared to untreated)
Method in brief: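 Wheat cv. Kanzler leaf discs on agar were sprayed with formulated compound diluted in water and inoculated with spores 2 days later. Discs were kept at 20° C, 75% rh, 12 h light/dark; percent disease control versus untreated was scored 5-7 days after application.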

[14] = system: Puccinia recondita f. sp. tritici; experiment: Puccinia recondita f. sp. tritici / wheat / leaf disc curative (brown rust); type: in vivo; settings: foliar, wheat leaf segments cv. Kanzler, compound applied 1 day after inoculation, assessed 6-8 days after application, read-out: control of Puccinia recondita f. sp. tritici, curative (percent disease control compared to untreated)
Protocol: Example B10: Puccinia recondita f. sp. tritici/Wheat/Leaf Disc Curative (Brown Rust) Wheat leaf segments cv. Kanzler are placed on agar in multiwell plates (24-well format). The leaf segments are inoculated with a spore suspension of the fungus. Plates are stored in darkness at 19° C. and 75% rh. The formulated test compound diluted in water is applied 1 day after inoculation. […] […]-185.

COc1ccc(Nc2cc(F)cc(F)c2)nc1C(=O)NC1(C)CCCCC1 [Compound P-108, 6-(3,5-difluoroanilino)-3-methoxy-N-(1-methylcyclohexyl)pyridine-2-carboxamide]
≥ 80%: inhibition at 20 ppm [1] | pest or weed control at 200 ppm [2] | inhibition at 20 ppm [3] | inhibition at 20 ppm [4] | inhibition at 20 ppm [5] | pest or weed control at 200 ppm [6] | pest or weed control at 200 ppm [7] | pest or weed control at 200 ppm [8] | inhibition at 20 ppm [9] | inhibition at 20 ppm [10]

CCC1(NC(=O)c2nc(Nc3cc(F)cc(F)c3)ccc2OC)CCC1 [Compound P-178, 6-(3,5-difluoroanilino)-N-(1-ethylcyclobutyl)-3-methoxy-pyridine-2-carboxamide]
≥ 80%: pest or weed control at 200 ppm [11] | inhibition at 20 ppm [12] | inhibition at 20 ppm [1] | pest or weed control at 200 ppm [2] | inhibition at 20 ppm [3] | pest or weed control at 200 ppm [13] | inhibition at 20 ppm [4] | inhibition at 20 ppm [5] | pest or weed control at 200 ppm [14] | pest or weed control at 200 ppm [6] | pest or weed control at 200 ppm [8] | inhibition at 20 ppm [10]

COc1ccc(Nc2cc(F)cc(F)c2)nc1C(=O)NC1(C2CCC2)CCC1 [Compound P-176, N-(1-cyclobutylcyclobutyl)-6-(3,5-difluoroanilino)-3-methoxy-pyridine-2-carboxamide]
≥ 80%: pest or weed control at 200 ppm [11] | inhibition at 20 ppm [12] | inhibition at 20 ppm [1] | pest or weed control at 200 ppm [2] | inhibition at 20 ppm [3] | pest or weed control at 200 ppm [13] | inhibition at 20 ppm [4] | inhibition at 20 ppm [5] | pest or weed control at 200 ppm [6] | pest or weed control at 200 ppm [8] | inhibition at 20 ppm [10]

COc1ccc(Nc2cc(F)cc(F)c2)nc1C(=O)NC(C)C(C)C (stereo not drawn) [Compound P-168, 6-(3,5-difluoroanilino)-N-(1,2-dimethylpropyl)-3-methoxy-pyridine-2-carboxamide]
≥ 80%: inhibition at 20 ppm [12] | inhibition at 20 ppm [1] | pest or weed control at 200 ppm [2] | inhibition at 20 ppm [3] | inhibition at 20 ppm [4] | inhibition at 20 ppm [5] | pest or weed control at 200 ppm [6] | pest or weed control at 200 ppm [8] | inhibition at 20 ppm [10]

COc1ccc(Nc2cc(F)c(F)c(F)c2)nc1C(=O)NC(C)(C)C [Compound P-162, N-tert-butyl-3-methoxy-6-(3,4,5-trifluoroanilino)pyridine-2-carboxamide]
≥ 80%: pest or weed control at 200 ppm [11] | inhibition at 20 ppm [12] | inhibition at 20 ppm [1] | pest or weed control at 200 ppm [2] | inhibition at 20 ppm [4] | inhibition at 20 ppm [5] | pest or weed control at 200 ppm [14] | pest or weed control at 200 ppm [6] | pest or weed control at 200 ppm [7] | pest or weed control at 200 ppm [8] | inhibition at 20 ppm [9] | inhibition at 20 ppm [10]

COc1ccc(Nc2cccc(F)c2)nc1C(=O)NC(C)(C)C [Compound P-160, N-tert-butyl-6-(3-fluoroanilino)-3-methoxy-pyridine-2-carboxamide]
≥ 80%: pest or weed control at 200 ppm [11] | inhibition at 20 ppm [12] | inhibition at 20 ppm [1] | pest or weed control at 200 ppm [2] | pest or weed control at 200 ppm [13] | inhibition at 20 ppm [4] | inhibition at 20 ppm [5] | pest or weed control at 200 ppm [14] | pest or weed control at 200 ppm [6] | pest or weed control at 200 ppm [7] | pest or weed control at 200 ppm [8] | inhibition at 20 ppm [9] | inhibition at 20 ppm [10]

COc1ccc(Nc2cc(F)nc(F)c2)nc1C(=O)NC1CCC1(C)C (stereo not drawn) [Compound P-4, 6-[(2,6-difluoro-4-pyridyl)amino]-N-(2,2-dimethylcyclobutyl)-3-methoxy-pyridine-2-carboxamide]
≥ 80%: pest or weed control at 200 ppm [11] | inhibition at 20 ppm [1] | pest or weed control at 200 ppm [2] | pest or weed control at 200 ppm [13] | inhibition at 20 ppm [4] | pest or weed control at 200 ppm [14] | pest or weed control at 200 ppm [6] | pest or weed control at 200 ppm [7] | pest or weed control at 200 ppm [8] | inhibition at 20 ppm [9] | inhibition at 20 ppm [10]

COc1ccc(Nc2cc(F)cc(F)c2)nc1C(=O)NC1(C(C)C)CCC1 [Compound P-179, 6-(3,5-difluoroanilino)-N-(1-isopropylcyclobutyl)-3-methoxy-pyridine-2-carboxamide]
≥ 80%: pest or weed control at 200 ppm [11] | inhibition at 20 ppm [12] | inhibition at 20 ppm [1] | pest or weed control at 200 ppm [2] | inhibition at 20 ppm [3] | pest or weed control at 200 ppm [13] | inhibition at 20 ppm [4] | inhibition at 20 ppm [5] | pest or weed control at 200 ppm [6] | pest or weed control at 200 ppm [8] | inhibition at 20 ppm [10]

COc1ccc(Nc2cc(F)nc(F)c2)nc1C(=O)NC1(C)CCCC1 [Compound P-109, 6-[(2,6-difluoro-4-pyridyl)amino]-3-methoxy-N-(1-methylcyclopentyl)pyridine-2-carboxamide]
≥ 80%: pest or weed control at 200 ppm [11] | inhibition at 20 ppm [1] | pest or weed control at 200 ppm [2] | inhibition at 20 ppm [4] | pest or weed control at 200 ppm [14] | pest or weed control at 200 ppm [6] | pest or weed control at 200 ppm [7] | pest or weed control at 200 ppm [8] | inhibition at 20 ppm [9] | inhibition at 20 ppm [10]

COc1ccc(Nc2cc(F)cc(F)c2)nc1C(=O)NC1CCC1(C)C (stereo not drawn) [Compound P-7, 6-(3,5-difluoroanilino)-N-(2,2-dimethylcyclobutyl)-3-methoxy-pyridine-2-carboxamide]
≥ 80%: pest or weed control at 200 ppm [11] | inhibition at 20 ppm [12] | inhibition at 20 ppm [1] | pest or weed control at 200 ppm [2] | inhibition at 20 ppm [3] | pest or weed control at 200 ppm [13] | inhibition at 20 ppm [4] | inhibition at 20 ppm [5] | pest or weed control at 200 ppm [6] | pest or weed control at 200 ppm [7] | pest or weed control at 200 ppm [8] | inhibition at 20 ppm [10]

Source: patent US12458021B2, “Microbiocidal derivatives” (SYNGENTA CROP PROTECTION AG, priority 2019, dated 2025)
